PMC13254535, “The RecBCD complex interacts directly with the DNA sliding clamp in Escherichia coli” (Nucleic Acids Research, 2026)
Residues, ends and D or L forms follow the SMILES beside them.

What was measured:
Format in all cases: binding
Parameters in all cases: made in house
β-clamp [1] = molecular target: T1, β-clamp (Escherichia coli, UniProt P0A988); experiment: Isothermal titration calorimetry (ITC), β-clamp titrated into peptide; conditions: 25°C; pH 7.4; one-site model; n = 3; affected by inaccurate peptide concentration and methionine oxidation
T1 sequence (P0A988 whole entry): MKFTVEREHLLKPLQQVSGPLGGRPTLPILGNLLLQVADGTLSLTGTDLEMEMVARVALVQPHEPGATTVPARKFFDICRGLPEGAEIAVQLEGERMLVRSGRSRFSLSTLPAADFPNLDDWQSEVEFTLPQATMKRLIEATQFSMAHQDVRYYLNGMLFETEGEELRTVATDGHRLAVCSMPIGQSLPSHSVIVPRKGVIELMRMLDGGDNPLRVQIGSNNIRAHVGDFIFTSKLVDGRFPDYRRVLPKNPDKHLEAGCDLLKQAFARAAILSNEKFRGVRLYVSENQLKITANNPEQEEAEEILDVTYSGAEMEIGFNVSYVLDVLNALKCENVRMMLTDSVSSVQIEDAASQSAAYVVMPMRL
Procedure: (§1) Unlabeled and ^2H, ^13C, ^15N-labeled E. coli β-clamp was expressed and purified as previously described. The β-clamp concentration was determined by absorbance at 280 nm measured on a NanoDrop ND-1000 spectrophotometer (Thermo Fisher Scientific Inc.) and using an extinction coefficient calculated by the Expasy ProtParam web tool (https://web.expasy.org/protparam/). All β-clamp concentrations are listed as the protomer concentration. The peptides were readily soluble at micromolar concentration, although at high micromolar concentrations, we cannot rule out the presence of aggregates.
Unlabeled β-clamp was buffer-exchanged into 20 mM sodium phosphate, 100 mM NaCl, 1 mM tris(2-carboxyethyl)phosphine (TCEP), pH 7.4 using a 15-ml spin filter (10 000 MWCO) (Millipore, Darmstadt, Germany). DMSO was added to the β-clamp sample to a final concentration of 0.02% (v/v). RecB nuclease motif peptide ([…]) (dissolved in 100% DMSO) was diluted into the same buffer as above, with a final DMSO concentration of 0.02% (v/v). […] The isothermal titration calorimetry (ITC) experiments were repeated three times and were recorded at 25°C on a Malvern MicroCal PEAQ-ITC instrument (Malvern, Worcestershire, United Kingdom) using a stir speed of 750 rpm. […]

β-clamp [2] = molecular target: T1, β-clamp; experiment: Saturation transfer difference (STD)-NMR of peptides with β-clamp; conditions: 150 µM peptide, 1.5 µM β-clamp; 25°C; 20 mM sodium phosphate, 100 mM NaCl, 5 mM DTT, 0.3% DMSO, 5% D2O, pH 7.4; 600 MHz
Procedure: All peptides, except Pol III C-terminal ([sequence]), were N-terminally acetylated and C-terminally amidated to remove charges in the N-and C-termini, not present in the context of the full-length proteins.
Unlabeled and ^2H, ^13C, ^15N-labeled E. coli β-clamp was expressed and purified as previously described [54]. The β-clamp concentration was determined by absorbance at 280 nm measured on a NanoDrop ND-1000 spectrophotometer (Thermo Fisher Scientific Inc.) and using an extinction coefficient calculated by the Expasy ProtParam web tool (https://web.expasy.org/protparam/) [55]. All β-clamp concentrations are listed as the protomer concentration. The peptides were readily soluble at micromolar concentration, although at high micromolar concentrations, we cannot rule out the presence of aggregates.
Saturation transfer difference (STD)-nuclear magnetic resonance (NMR) experiments were performed at 25°C on a Bruker Avance III HD 600 MHz NMR spectrometer equipped with a 5-mm QCI Cryoprobe. […] Samples were transferred to 5-mm NMR tubes.

β-clamp [3] = molecular target: T1, β-clamp; experiment: 2D TROSY-1H-15N-HSQC chemical shift perturbation of β-clamp; conditions: 140 µM 2H,13C,15N-labeled β-clamp, 700 µM peptide (five-fold molar excess); 37°C; 20 mM sodium phosphate, 100 mM NaCl, 5 mM DTT, 2% DMSO, pH 7.4
Procedure: as §1
2D TROSY-^1H-^15N-HSQC (Two-Dimensional Transverse Relaxation Optimized Spectroscopy Heteronuclear Single Quantum Coherence experiment correlating ^1H and ^15N nuclei) spectra were recorded of 140 µM ^2H, ^13C, ^15N-labeled β-clamp with and without the addition of 700 µM RecB nuclease motif peptide ([…]) in 20 mM sodium phosphate, 100 mM NaCl, 5 mM DTT, 5% (v/v) D2O, 125 µM DSS, 2% (v/v) DMSO, pH 7.4. […] The samples were transferred to 5-mm Shigemi tubes, and the NMR spectra were recorded at 37°C on a Bruker Avance III 750 MHz spectrometer equipped with a cryoprobe. […] The spectra were processed in Topspin (Bruker) and analyzed in CcpNmr Analysis. […] Chemical shift perturbations (CSPs) were calculated using the following equation [57]: […]

With CSCC[C@H](NC(=O)[C@H](CCC(=O)O)NC(=O)[C@@H](NC(=O)[C@H](CCC(N)=O)NC(=O)[C@H](CCCCN)NC(C)=O)C(C)C)C(=O)N[C@@H](CCC(=O)O)C(=O)N[C@@H](Cc1ccccc1)C(=O)N[C@@H](Cc1ccc(O)cc1)C(N)=O [QVEMEF] (Ac-KQVEMEFY-NH2) as the compound, how does the “N-value (stoichiometry)” value (β-clamp [1]) read?
The value was 0.39 ± 0.02.

What about the STD-NMR binding (β-clamp [2]) of the same compound?
The STD-NMR binding was “shows a distinct STD signal, indicating specific interaction”.

What about the “chemical shift perturbations (CSPs) of β-clamp residues” value (β-clamp [3]) of the same compound?
Its value is “The largest CSPs localized to residues surrounding the canonical CBM binding pocket, including L177, Y244, V247, I317, S345, Q348, V361, M364, and R365”.
